Assays:
[1] = target: T1, human Glyceraldehyde 3-Phosphate Dehydrogenase (HsGAPDH) (Homo sapiens, UniProt P04406); test: UV photoaffinity crosslinking ([…]) with anti-SA immunoblot; type: binding
T1 construct: gene GAPDH; N-terminally His-tagged human GAPDH, expressed in E. coli

[2] = target: T1, human Glyceraldehyde 3-Phosphate Dehydrogenase (HsGAPDH); test: SPR competition with immobilized 3AESA; competition of 4AzSA photoaffinity crosslinking; type: binding

T1 sequence (P04406 whole entry): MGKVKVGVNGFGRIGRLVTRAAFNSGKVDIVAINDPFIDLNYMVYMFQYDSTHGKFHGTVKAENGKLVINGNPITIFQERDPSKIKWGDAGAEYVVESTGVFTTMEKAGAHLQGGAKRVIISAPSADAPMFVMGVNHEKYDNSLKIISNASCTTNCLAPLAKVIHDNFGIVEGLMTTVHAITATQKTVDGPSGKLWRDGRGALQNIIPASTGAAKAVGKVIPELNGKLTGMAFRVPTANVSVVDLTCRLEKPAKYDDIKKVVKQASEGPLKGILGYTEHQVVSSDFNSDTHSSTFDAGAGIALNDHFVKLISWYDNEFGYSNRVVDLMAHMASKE

Compound | UV photoaffinity crosslinking (0.05 mM) with anti-SA immunoblot [1] | SPR competition with immobilized 3AESA; competition of 4AzSA photoaffinity cross [2]
[N-]=[N+]=Nc1ccc(C(=O)O)c(O)c1 [4AzSA, 4-azido salicylic acid] | Recombinant HsGAPDH crosslinked with 4AzSA, and this crosslinking was suppressed in the presence of increasing levels of SA. | 
O=C(O)c1ccccc1O [SA, Salicylic acid] |  | suppression of this interaction required millimolar concentrations of SA (Fig 2B)
